Data as given in patent US8598339B2, “Withanolide isolated from Physalis longifolia and analogs and methods of use thereof” (University of Kansas, priority 2011, dated 2013).

Tests used:
Assay type in all cases: cell-based
[1] = test system: MDA-MB-231; assay: MTS assay, MDA-MB-231
Description: (§1) Cell proliferation was analyzed using MTS assay.

[2] = test system: MCF-7 cells; assay: Annexin V-FITC/Propidium Iodide apoptosis, MCF-7; conditions: 1-4 μM, 24 and 48 hours
Text: Therefore, this cell line was not very sensitive to X001 in this assay.

[3] = test system: MDA-MB-231 cells; assay: Cell cycle analysis, MDA-MB-231; conditions: 4 and 8 μM; 24-hour treatment
[4] = test system: Mia PaCa-2; assay: Pancreatic cancer cell viability, Mia PaCa-2; conditions: Homo sapiens, MIA PaCa2, read-out: IC50
Description: (§2) The activity of the withanolides of this invention were tested in pancreatic cancer cells. […] Moreover, IC50 values were determined for these compounds (Table 14).

[5] = test system: SUP-B15 cells; assay: Annexin V/propidium iodide apoptosis, SUP-B15; conditions: 48 hour; approximately 10×IC50 (Withaferin A, X001), 4×IC50 (X003)
Description: (§3) Cell proliferation was analyzed using MTS assay and Trypan Blue exclusion. Annexin V-FITC/Propidium Iodide flow cytometry was used to analyze the induction of apoptosis in SUP-B15 cells after treatment with anolides. Cell cycle analysis was performed using propidium iodide flow cytometry. Modulation of BCR-ABL and downstream effector proteins was determined by western blot analysis. Syngery between withanolides and TKIs was evaluated using MTS viability to calculate combination indices. Apoptotic synergy was evaluated using Annexin V/PI.
At no concentrations was the population of cells in necrosis significant.

[6] = test system: SUP-B15 Ph+ ALL cells; assay: MTS assay, SUP-B15; conditions: for IC50: Homo sapiens, SUP-B15
Description: as §3

[7] = test system: melanoma cells B16F10; assay: MTS cell viability assay, B16F10; conditions: Mus musculus; for IC50: B16-F10, Table 1, 72-hour treatment; for IC90: B16-F10, Table 2
In short: (§4)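 JMAR and MDA1986 head and neck SCC cells and B16F10 melanoma cells grown in DMEM with 10% heat-inactivated FBS at 37 °C, 5% CO2, seeded at 1-2×10^4 cells/mL. Viability measured by MTS after 72-hour compound treatment, 3-hour reagent incubation, formazan absorbance at 490 nm.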

[8] = test system: human melanoma SKMEL28 cells; assay: MTS cell viability assay, SKMEL28; conditions: Homo sapiens; for IC50: SK-MEL-28, 72 h; for IC90: SK-MEL-28, Table 2
In short: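 SKMEL28 melanoma cells in DMEM with 10% heat-inactivated FBS were seeded at 1-2×10^4 cells/mL and exposed to withanolides for 72 h. Viability was measured by MTS reagent, incubated 3 h at 37 °C, with formazan absorbance read at 490 nm.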

[9] = test system: squamous cell carcinoma of head and neck cells MDA1986; assay: MTS cell viability assay, MDA1986; conditions: Table 1, 72-hour treatment
In short: as §4

[10] = test system: HCC1937 cells; assay: Clonogenic assay, HCC1937; conditions: 1-2 μM; treated 24 hours, cultured two weeks
[11] = test system: normal MRC-5 fibroblasts; assay: MTS assay, normal MRC-5 fibroblasts (Example 7); conditions: Homo sapiens, MRC5
Description: as §3

[12] = test system: SUP-B15 cells; assay: Cell cycle analysis by PI flow cytometry, SUP-B15
Description: as §3

[13] = test system: UMSCC-2 HNSCC cells; assay: Annexin V/PI staining and flow cytometry, UMSCC-2
Description: In similar analysis with X003, 50% of UMSCC-2 HNSCC cells underwent apoptosis (early and late) at 1 μM, while 90% of cells underwent apoptosis at 3 μM. Apoptosis with 1 μM X003 was confirmed with PARP cleavage and caspase 3 activation in NCI-H727 cells.

[14] = test system: SUP-B15 cells; assay: Trypan blue exclusion assay, SUP-B15; conditions: 5×, 2×, 1×, 0.5×IC50
Description: Cell proliferation was analyzed using MTS assay and Trypan Blue exclusion. Annexin V-FITC/Propidium Iodide flow cytometry was used to analyze the induction of apoptosis in SUP-B15 cells after treatment with anolides. Cell cycle analysis was performed using propidium iodide flow cytometry. Modulation of BCR-ABL and downstream effector proteins was determined by western blot analysis. […] between withanolides and TKIs was evaluated using MTS viability to calculate combination indices. Apoptotic synergy was evaluated using Annexin V/PI.

[15] = test system: MRC5; assay: MTS assay, MRC5; conditions: MRC5 (normal)
Description: as §1

[16] = test system: squamous cell carcinoma of head and neck cells JMAR; assay: MTS cell viability assay, JMAR; conditions: for IC50: Table 1, 72-hour treatment; for IC90: Table 2
In short: as §4

[17] = test system: human carcinoid cells NCI-H727; assay: MTS cell viability assay, NCI-H727; conditions: Table 1, NCI-H727, 72-hour treatment, read-out: IC50
Description: (§5) Human carcinoid cells, NCI-H727 (ATCC, Manassas, Va.), were cultured under standard conditions. Squamous cell carcinoma of head and neck cells, MDA1986 (Myers, et al. (2002) Clin. Cancer Res. 8:293) and JMAR (Swan, et al. (2003) Oral Oncol. 39:648-55); and melanoma cells lines B16F10 (ATCC, Manassas, Va.) and SKMEL28 (CLS, Eppelheim, Germany) were cultured in DMEM medium supplemented with 10% heat-inactivated fetal bovine serum (Sigma-Aldrich, St. Louis, Mo.), 1×MEM-essential amino acid, 1×MEM vitamin, and penicillin/streptomycin (Sigma-Aldrich, St. Louis, Mo.) in a humid environment of 5% CO2 at 37° C. Activity of withanolides against DRO81-1 and TT medullary thyroid cancer cells was also determined.
(§6) Cells were cultured in 96 well plates at a concentration of 1-2×10^4 cells/mL. Cell viability was assessed with the nonradioactive cell proliferation MTS assay using Cell Titer 96AQUEOUS One Solution Reagent (PROMEGA, Madison, Wis.), according to the manufacturer's instruction. After a 72-hour treatment, 20 μL of Cell Titer 96AQUEOUS One Solution Reagent were added to each well and incubated for 3 hours at 37° C. 5% CO2, and formazan absorbance was measured at 490 nm.

[18] = test system: DRO81-1 medullary thyroid cancer cells; assay: MTS cell viability assay, DRO81-1; conditions: Table 1; DRO81-1; 72-hour treatment; read-out: IC50
Description: as §5, §6

[19] = test system: SUP-B15 Ph+ALL cells; assay: Combination with imatinib, MTS viability, SUP-B15; conditions: 16 combinations
Description: as §3

[20] = test system: MRC-5; assay: MTS cell viability assay, MRC-5; conditions: Homo sapiens, MRC5, Table 1, 72-hour treatment
[21] = test system: HS766T; assay: Pancreatic cancer cell viability, HS766T; conditions: read-out: IC50
Description: as §2

[22] = Table 3, treated for 72 hours, NA = no activity

## CC1=C(CO)C(=O)O[C@@H]([C@@H](C)C2CC[C@H]3[C@@H]4C[C@H]5O[C@]56[C@@H](O)C=CC(=O)[C@]6(CO)[C@H]4CC[C@]23C)C1 (stereo partly shown) [Compound X001]
[1]
  Log ECF: 1.25
[2]
  induction of apoptosis: did not induce apoptosis
[3]
  cell cycle effect: G2/M arrest
[4]
  IC50: 0.8 µM
[5]
  induction of apoptosis: almost all cells were in either late or early apoptosis
[6]
  IC50: 0.35 µM
[7]
  IC50: 0.92 µM
  IC90: 2.64 µM
[8]; Table 1, 72-hour treatment
  IC50: 5.06 µM
[8]; [22]
  IC50: 4.71 µM
[8]
  IC90: 2.14 µM
[9]
  IC50: 3.34 µM
[10]
  colony formation: strongly inhibited
[11]
  IC50: 8.2 µM
[12]; 200 nM, 48 hour treatment
  Cell Cycle (%) G0/G1: 53.1%
  Cell Cycle (%) G2/M: 26.4%
  Cell Cycle (%) S: 19.5%
[12]; 400 nM, 48 hour treatment
  Cell Cycle (%) G0/G1: 54.6%
  Cell Cycle (%) G2/M: 27.1%
  Cell Cycle (%) S: 18.3%
[12]; 800 nM, 48 hour treatment
  Cell Cycle (%) G0/G1: 47.5%
  Cell Cycle (%) G2/M: 42.2%
  Cell Cycle (%) S: 10.3%
[12]; 1600 nM, 48 hour treatment
  Cell Cycle (%) G0/G1: 39.9%
  Cell Cycle (%) G2/M: 44.5%
  Cell Cycle (%) S: 15.7%
[12]; 3200 nM, 48 hour treatment
  Cell Cycle (%) G0/G1: 49.9%
  Cell Cycle (%) G2/M: 31.5%
  Cell Cycle (%) S: 18.6%
[13]; 5 μM, 24-hour exposure, HNSCC cells
  cells undergoing apoptosis (early and late): 18%
[14]
  cell death at 24 hours, trypan blue exclusion: caused death at 24 hours with 2× and 5×IC50 values
[15]
  Log ECF: 4.59
[16]
  IC50: 5.32 µM
  IC90: 4.9 µM
[17]
  IC50: 1.68 µM
[18]
  IC50: 2.29 µM
[19]
  synergy with imatinib: showed synergy at all concentrations tested
[20]
  IC50: 12.7 µM
[21]
  IC50: 1.3 µM

## CC(=O)OCC1=C(C)C[C@H]([C@@H](C)C2CC[C@H]3[C@@H]4C[C@H]5O[C@]56[C@@H](OC(C)=O)C=CC(=O)[C@]6(COC(C)=O)[C@H]4CC[C@]23C)OC1=O (stereo partly shown) [Compound X003, 4,19,27-triacetyl X001]
[4]
  IC50: 0.35 µM
[5]
  induction of apoptosis: almost all cells were in either late or early apoptosis
[6]
  IC50: 0.048 µM
[6]; MRC-5 vs SUP-B15 IC50
  Fold Difference: 31X
[7]
  IC50: 0.067 µM
  IC90: 0.33 µM
[8]; Table 1, 72-hour treatment
  IC50: 0.54 µM
[8]; [22]
  IC50: 0.221 µM
[8]
  IC90: 0.36 µM
[9]
  IC50: 0.91 µM
[11]
  IC50: 1.5 µM
[12]; 15 nM
  Cell Cycle (%) G0/G1: 57.4%
  Cell Cycle (%) G2/M: 20.7%
  Cell Cycle (%) S: 21.9%
[12]; 30 nM
  Cell Cycle (%) G0/G1: 66.4%
  Cell Cycle (%) G2/M: 24%
  Cell Cycle (%) S: 9.5%
[12]; 60 nM
  Cell Cycle (%) G0/G1: 62.5%
  Cell Cycle (%) G2/M: 22.2%
  Cell Cycle (%) S: 15.3%
[12]; 120 nM
  Cell Cycle (%) G0/G1: 52.6%
  Cell Cycle (%) G2/M: 30%
  Cell Cycle (%) S: 17.4%
[13]; 1 μM, UMSCC-2
  cells undergoing apoptosis (early and late): 50%
[13]; 3 μM, UMSCC-2
  cells undergoing apoptosis: 90%
[14]
  cell death at 24 hours, trypan blue exclusion: significant cell death at 24 hours at IC50 values
[16]
  IC50: 0.16 µM
  IC90: 1.3 µM
[17]
  IC50: 0.32 µM
[18]
  IC50: 0.34 µM
[19]; 0.25×-1×IC50 of each drug
  combination index (CI) with imatinib: 0.136
[19]
  synergy with imatinib: showed synergy at all concentrations tested
[20]
  IC50: 0.58 µM
[21]
  IC50: 0.4 µM
